Patent US7282522B2, “Hydroxamic acid derivatives and the method for preparing thereof” (Amorepacific Corporation, priority 2003, dated 2007)

How the values were obtained:
[1] = system: collagenase; assay: Inhibition of collagenase expression in human fibroblasts (ELISA kit); type: cell-based; conditions: 10^−4M, 24 hours, serum-free medium, relative to control group = 100
Protocol: Human fibroblasts were seeded into 96-well microtiter plate at 5,000 cells per well and then cultured to 90% of growth in DMEM (Dulbecco's Modified Eagle's Media) supplemented with 2.5% fetal bovine serum. Then, the fibroblastes were cultured in serum-free DMEM for 24 hours and treated for 24 hours with 10^−4M of hydroxamic acid derivatives of Examples 1˜55, retinol or retinoic acid in serum-free medium, and then the culture fluid was collected.
(§1) For each culture fluid, collagenase production was measured with collagenase kit (commercialized by AmershamPharmacia Biotech). Firstly, the culture fluid was added to 96-well plate spread with primary collagenase antibody and then antigen-antibody reaction was performed in an incubator for 3 hours. Later, chromophore-conjugated secondary antibody was added to the 96-well plate and then reacted for 15 minutes. Then, color former was added thereto, to induce development at room temperature for 15 minutes. 1M of sulfuric acid was added to stop the reaction. […] The color density depends on the progress of the reaction. The absorbance of the yellow 96-well plate was measured at 405 nm using absorptiometer. Collagenase expression was calculated by the following equation 1. Herein, the absorbance of the culture fluid collected from the medium with no material treated was used as a control. Collagenase expression (%)=(Absorbance of test group with said material treated/Absorbance of control group with no material treated)×100 [Equation 1]
Collagenase expression was evaluated as a relative value, in consideration that the value of control group with no material treated is 100.

[2] = molecular target: T1, RARγ (Homo sapiens, UniProt P13631); assay: RARE-luciferase reporter assay in transfected CV-1 cells (affinity to retinoic acid receptor), RARγ; type: cell-based; conditions: treated 24 hours at final concentration 10^−4M, control group 5000
T1 construct: expressed in transfected cells; host or cells: CV-1 cells (ATCC)
T1 sequence (P13631 1-454): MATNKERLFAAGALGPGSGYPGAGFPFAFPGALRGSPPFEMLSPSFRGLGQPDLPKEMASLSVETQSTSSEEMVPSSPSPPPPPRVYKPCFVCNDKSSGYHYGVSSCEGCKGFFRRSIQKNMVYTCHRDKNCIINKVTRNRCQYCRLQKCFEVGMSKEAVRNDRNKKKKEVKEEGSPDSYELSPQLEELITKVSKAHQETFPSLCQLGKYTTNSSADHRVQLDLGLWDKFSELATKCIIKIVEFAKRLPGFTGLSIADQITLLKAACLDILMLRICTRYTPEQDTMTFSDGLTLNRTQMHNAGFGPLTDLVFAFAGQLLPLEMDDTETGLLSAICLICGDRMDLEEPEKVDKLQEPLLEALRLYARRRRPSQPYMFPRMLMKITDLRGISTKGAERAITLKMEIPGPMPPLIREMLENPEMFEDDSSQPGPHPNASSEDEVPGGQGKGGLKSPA
Protocol: (§2) Receptor-expression plasmid, pECE-RARα and pECE-RARγ were engineered by the prior method (Mol. Cell. Biol. 1996, 16, 1138-1149). RARE-tk-Luc, i.e. RARE reporter was obtained by inserting RARE fragment from b-RARE-tk-CAT into pGL3 luciferase basic vector. CV-1 cells were obtained from ATCC (American Type Culture Collection).
(§3) CV-1 cells were seeded into 96-well microtiter plate at 5,000 cells per well and cultured in DMEM (Dulbecco's Modified Eagle's Media) supplemented with 2.5% fetal bovine serum. 24 Hours later, the cells were transfected with 10 ng of pECE-RARα, long of pECE-RARγ, 100 ng of reporter plasmid and 100 ng of β-galactosidase-expression vector, using LipofectaminPlus (GIBCO BRL, grand island, N.Y.).

[3] = system: elastase; assay: Inhibition of elastase expression in human fibroblasts (ELISA kit); type: cell-based; conditions: 10^−4M, 24 hours, serum-free medium, relative to control group = 100
Protocol: as §1, with “elastase” for “collagenase”, “Elastase” for “Collagenase”, “2.” for “1.”, “2]” for “1]”
Elastase expression was evaluated as a relative value, in consideration that the value of control group with no material treated is 100.

[4] = system: white guinea pigs; assay: Phototoxicity test (UVA irradiation); conditions: for Evaluation (phototoxicity): 1%(w/v) solution, UVA 15 J/cm^2; for Phototoxic index: 50 μl of 1%(w/v) solution, UVA 320~380 nm 15 J/cm^2, observed 24, 48 and 72 hours
[5] = molecular target: T2, RARα (Homo sapiens, UniProt P10276); assay: RARE-luciferase reporter assay in transfected CV-1 cells (affinity to retinoic acid receptor), RARα; type: cell-based; conditions: treated 24 hours at final concentration 10^−4M, control group 1000
T2 construct: expressed in transfected cells; host or cells: CV-1 cells (ATCC)
T2 sequence (P10276 1-462): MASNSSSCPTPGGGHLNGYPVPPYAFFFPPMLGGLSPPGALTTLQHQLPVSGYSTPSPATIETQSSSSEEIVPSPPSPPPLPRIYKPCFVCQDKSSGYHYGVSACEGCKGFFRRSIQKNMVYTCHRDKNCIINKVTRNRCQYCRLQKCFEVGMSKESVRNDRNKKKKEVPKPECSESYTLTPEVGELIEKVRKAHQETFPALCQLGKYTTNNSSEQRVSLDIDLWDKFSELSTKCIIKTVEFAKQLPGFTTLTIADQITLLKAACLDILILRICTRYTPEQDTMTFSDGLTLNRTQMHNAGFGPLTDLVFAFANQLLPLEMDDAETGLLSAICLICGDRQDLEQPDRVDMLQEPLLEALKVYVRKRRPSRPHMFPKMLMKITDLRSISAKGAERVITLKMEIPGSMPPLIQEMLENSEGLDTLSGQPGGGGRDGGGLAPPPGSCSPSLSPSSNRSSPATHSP
Excerpt: This example illustrates affinities of hydroxamic acid derivatives obtained in Examples 1 to 55 to retinoic acid receptor, in comparison with retinol and retinoic acid.
as §2
as §3, with “N.Y.). 24 Hours post-transfection, the cells were treated for 24 hours with hydroxamic acid derivatives of Examples 1˜55 or retinol at a final concentration of 10^−4M or with retinoic acid at a final concentration of 10^−5M, which is 10 times lower concentration than those of the former.” for “N.Y.).”

[6] = system: rabbits; assay: Primary skin irritation test on animals (Draize P.I.I.); conditions: depilated back; for P.I.I. (Primary Irritation Index): 0.5 ml of 1% solution in 1,3-butylene glycol:ethanol 7:3, observed 24 or 72 hours later; for Evaluation (skin irritation): 1% solution, according to Draize's P.I.I.
[7] = system: procollagen type I; assay: Effect on collagen biosynthesis (procollagen type I ELISA) in human fibroblasts; type: cell-based; conditions: 10^−4M, 24 hours, serum-free medium, relative to control group = 100
Protocol: Human fibroblasts were seeded into 24-well plate at 1×10^5 cells per well and then cultured to 90% of growth.
For each supernatant, procollagen production was measured with procollagen type I ELISA kit.

| SMILES | Collagenase expression (%) [1] [%] | Luciferase activity RARγ [2] | Elastase expression (%) [3] [%] | Evaluation (phototoxicity) [4] | Phototoxic index [4] | Luciferase activity RARα [5] | P.I.I. (Primary Irritation Index) [6] | Evaluation (skin irritation) [6] | Collagen biosynthesis (%) [7] [%] |
| --- | --- | --- | --- | --- | --- | --- | --- | --- | --- |
| Cc1ccc(C(=O)Nc2ccc(C(=O)NO)cc2)cc1 [Example 2, N-[4-(N-hydroxycarbamoyl)phenyl][4-methylphenyl]carboxyamide] | 68 | 11200 | 78 | No phototoxicity (lower value than 0.5, criterion value to be estimated as no phototoxicity) | 0 | 12000 | 0.345 | No irritation | 118 |
| CCc1ccc(N(C)C(=O)c2ccc(C(=O)NO)cc2)cc1 [Example 48, [4-(N-hydroxycarbamoyl)phenyl]-N-methyl-N-[4-ethylphenyl]carboxyamide] | 87 | 11200 | 87 | No phototoxicity (lower value than 0.5, criterion value to be estimated as no phototoxicity) | 0 | 15500 | 0.468 | No irritation | 107 |
| CC(C)c1ccc(C(=O)N(C)c2ccc(C(=O)NO)cc2)cc1 [Example 17] | 81 | 11700 | 82 | No phototoxicity (lower value than 0.5, criterion value to be estimated as no phototoxicity) | 0 | 12400 | 0.123 | No irritation | 111 |
| Cc1cccc(C(=O)N(C)c2ccc(C(=O)NO)cc2)c1 [Example 14, N-[4-(N-hydroxycarbamoyl)phenyl]-N-methyl-[3-methylphenyl]carboxyamide] | 72 | 10300 | 75 | No phototoxicity (lower value than 0.5, criterion value to be estimated as no phototoxicity) | 0 | 18000 | 0.231 | No irritation | 115 |
| CC(C)c1ccc(N(C)C(=O)c2ccc(C(=O)NO)cc2)cc1 [Example 50, [4-(N-hydroxycarbamoyl)phenyl]-N-methyl-N-[4-isopropylphenyl]carboxyamide] | 80 | 11212 | 78 | No phototoxicity (lower value than 0.5, criterion value to be estimated as no phototoxicity) | 0 | 12300 | 0.234 | No irritation | 110 |
| CCc1ccc(C(=O)Nc2ccc(C(=O)NO)cc2)cc1 [Example 4, N-[4-(N-hydroxycarbamoyl)phenyl][4-ethylphenyl]carboxyamide] | 78 | 12300 | 70 | No phototoxicity (lower value than 0.5, criterion value to be estimated as no phototoxicity) | 0 | 12000 | 0.350 | No irritation | 119 |
| CC(C)(C)c1ccc(C(=O)Nc2ccc(CC(=O)NO)cc2)cc1 [Example 30, N-[4-(N-hydroxycarbamoylmethyl)phenyl][4-tert-butylphenyl]carboxyamide] | 83 | 12000 | 69 | No phototoxicity (lower value than 0.5, criterion value to be estimated as no phototoxicity) | 0 | 23500 | 0.456 | No irritation | 121 |
